In brackets after ≈: the same amount, converted by molar mass. Like-named read-outs stand apart in the source and are kept apart here.
Columns and labels:
[1] = test system: C. albicans; test: microbe, parasite or virus in culture; format: cell-based, Candida albicans; settings: 48 h
Description: (§1) Microbial strains: Microbial strains were procured from National Culture Collection of Pathogenic Fungi (NCCPF) at the Postgraduate Institute of Medical Education & Research (PGIMER), Chandigarh and Microbial Type Culture Collection and Gene bank (MTCC) at the Institute of Microbial Technology (IMTECH), Chandigarh, India. Peptides were screened against five different strains of fungi: viz. Candida albicans (NCCPF400034), Candida glabrata (MTCC 3019), Candida parapsilosis (NCCPF 440002), Candida krusei (NCCPF 440002) and Cryptococcus neoformans (NCCPF250316), and five strains of bacteria: viz. Escherichia coli (MTCC 2961), Staphylococcus aureus (MTCC 3160), Enterococcus faecalis (MTCC 439), Streptococcus pyogenes (MTCC 442) and Pseudomonas aeruginosa (MTCC 3542).
(§2) Growth media: Antifungal susceptibility testing was carried out using standard broth microdilution assays as per the Clinical and Laboratory Standards Institute (CLSI) guidelines for fungi. RPMI 1640 (Sigma), yeast extract, peptone and dextrose (YPED, Himedia) were used as the incubation broths. The cells were diluted to a cell density of 10^3 colony forming unit (CFU/mL) and incubated at 30 °C for 48 h. Furthermore, Muller Hinton (Himedia) media was utilized for bacterial strains and antibacterial activity was evaluated per CLSI guidelines for bacteria. Bacterial cells were diluted to a cell density of 10^5 CFU/mL and incubated at 37 °C for 24 h. Amphotericin B (Himedia, India) and rifampicin (Himedia, India) were used as standard drugs for the evaluation of activity against all the fungal and bacterial strains, respectively.
(§3) The stock solutions of peptides (2 mg/mL) were prepared in DMSO. Specific amounts of peptide from stock solution were added to a 96-well microtiter plate containing 100 μL of growth media and then serially diluted two-fold. A further 100 μL of growth media containing microbial cells were added to each well and incubated at 30–37 °C for 24–48 h. The optical density (OD) was measured at 600 nm using a BioStack Ready (BioTek Instruments, Winooski, VT, USA) microplate reader to analyze microbial growth inhibition, and IC50 and MIC values were calculated. To visualize the growth and inhibition pattern, a solution of 3-(4,5-dimethylthiazol-2-yl)-2,5-diphenyltetrazolium bromide (MTT) in water was added to the plate and incubated for 2–3 h. MTT reacts with the mitochondrial dehydrogenases, which are present only in a viable cell, to give blue colored formazan crystals. Therefore, a darker color indicates a high number of viable cells; however, non-viable cells appear pale or colorless.

[2] = test system: C. parapsilosis; test: microbe, parasite or virus in culture; format: cell-based, Candida parapsilosis; settings: 48 h
Description: as §1, §2, §3

[3] = test system: E. coli; test: microbe, parasite or virus in culture; format: cell-based, Escherichia coli
Description: as §1
as §2, with “Bacterial cells were diluted to a cell density of 10^5 CFU/mL and incubated at 37 °C for 24 h.” left out
as §3

[4] = test system: S. pyogens; test: microbe, parasite or virus in culture; format: cell-based, Streptococcus pyogenes
[5] = test system: C. glabrata; test: microbe, parasite or virus in culture; format: cell-based, Candida glabrata; settings: 48 h
Description: as §1, §2, §3

[6] = test system: S. aureus; test: microbe, parasite or virus in culture; format: cell-based, Staphylococcus aureus
Description: as §1
as §2, with “Bacterial cells were diluted to a cell density of 10^5 CFU/mL and incubated at 37 °C for 24 h.” left out
as §3

[7] = test system: C. krusei; test: microbe, parasite or virus in culture; format: cell-based, Candida krusei; settings: 48 h
Description: as §1, §2, §3

[8] = test system: E. faecalis; test: microbe, parasite or virus in culture; format: cell-based, Enterococcus faecalis
[9] = test system: C. neoformans; test: microbe, parasite or virus in culture; format: cell-based, Cryptococcus neoformans; settings: 48 h
Description: as §1, §2, §3

[10] = test system: P. aeruginosa; test: microbe, parasite or virus in culture; format: cell-based, Pseudomonas aeruginosa
[11] = test system: C. neoformans cells; test: Time kill assay; settings: negative-control peptides, compared with untreated cells, 24 h

| Compound | IC50 [1] | MIC [1] | IC50 [2] | MIC [2] | IC50 ([3]; 48 h) | MIC ([3]; 48 h) | IC50 ([4]; 48 h) | MIC ([4]; 48 h) | IC50 [5] | MIC [5] | IC50 ([6]; 48 h) | MIC ([6]; 48 h) | IC50 [7] | MIC [7] | IC50 ([8]; 48 h) | MIC ([8]; 48 h) | IC50 [9] | MIC [9] | IC50 ([10]; 48 h) | MIC ([10]; 48 h) | also measured |
| --- | --- | --- | --- | --- | --- | --- | --- | --- | --- | --- | --- | --- | --- | --- | --- | --- | --- | --- | --- | --- | --- |
| CO[C@H]1/C=C/O[C@@]2(C)Oc3c(C)c(O)c4c(O)c(c(/C=N/N5CCN(C)CC5)c(O)c4c3C2=O)NC(=O)/C(C)=C\C=C\[C@H](C)[C@H](O)[C@@H](C)[C@@H](O)[C@@H](C)[C@H](OC(C)=O)[C@@H]1C [Rifampicin, reference compound] | – | – | – | – | – | – | – | – | – | – | – | – | – | – | – | – | – | – | – | – | IC50 ([3]; Escherichia coli): 1 µg/mL (≈ 1.22 µM); MIC ([3]; Escherichia coli): 2 µg/mL (≈ 2.43 µM); IC50 ([4]; Streptococcus pyogenes, S. pyogens, read-out: IC50): 1 µg/mL (≈ 1.22 µM); MIC ([4]; Streptococcus pyogenes, S. pyogens, read-out: MIC): 2 µg/mL (≈ 2.43 µM); IC50 ([6]; Staphylococcus aureus): 2 µg/mL (≈ 2.43 µM); MIC ([6]; Staphylococcus aureus): 4 µg/mL (≈ 4.86 µM); IC50 ([8]; Enterococcus faecalis, E. faecalis, read-out: IC50): 1 µg/mL (≈ 1.22 µM); MIC ([8]; Enterococcus faecalis, E. faecalis, read-out: MIC): 2 µg/mL (≈ 2.43 µM); IC50 ([10]; Pseudomonas aeruginosa, P. aeruginosa, read-out: IC50): 16 µg/mL (≈ 19.4 µM); MIC ([10]; Pseudomonas aeruginosa, P. aeruginosa, read-out: MIC): 32 µg/mL (≈ 38.9 µM) |
| COC(=O)[C@H](Cc1ncn(Cc2cc(C(C)(C)C)cc(C(C)(C)C)c2)c1I)NC(=O)[C@H](Cc1c[nH]c2ccccc12)NC(=O)OC(C)(C)C [9d] | >35.2 µg/mL | >64.0 µg/mL | >35.2 µg/mL | >64.0 µg/mL | – | – | – | – | >35.2 µg/mL | >64.0 µg/mL | – | – | >35.2 µg/mL | >64.0 µg/mL | – | – | >35.2 µg/mL | >64.0 µg/mL | – | – | Growth inhibition in time-kill profile [11]: did not show any growth inhibition |
| COC(=O)[C@H](Cc1ncn(Cc2ccc(C(F)(F)F)cc2)c1I)NC(=O)[C@H](Cc1c[nH]c2ccccc12)NC(=O)OC(C)(C)C [9g] | >35.2 µg/mL | >64.0 µg/mL | >35.2 µg/mL | >64.0 µg/mL | – | – | – | – | >35.2 µg/mL | >64.0 µg/mL | – | – | >35.2 µg/mL | >64.0 µg/mL | – | – | >35.2 µg/mL | >64.0 µg/mL | – | – | – |
| COC(=O)[C@H](Cc1ncn(Cc2ccccc2)c1I)NC(=O)[C@H](Cc1c[nH]c2ccccc12)NC(=O)OC(C)(C)C [9a] | >35.2 µg/mL | >64.0 µg/mL | >35.2 µg/mL | >64.0 µg/mL | – | – | – | – | >35.2 µg/mL | >64.0 µg/mL | – | – | >35.2 µg/mL | >64.0 µg/mL | – | – | 17.78 µg/mL (≈ 26.5 µM) | 32.34 µg/mL (≈ 48.2 µM) | – | – | – |

Second part, led by results:

| IC50 [1] | MIC [1] | IC50 [2] | MIC [2] | IC50 ([3]; 48 h) | MIC ([3]; 48 h) | IC50 ([4]; 48 h) | MIC ([4]; 48 h) | IC50 [5] | MIC [5] | IC50 ([6]; 48 h) | MIC ([6]; 48 h) | IC50 [7] | MIC [7] | IC50 ([8]; 48 h) | MIC ([8]; 48 h) | IC50 [9] | MIC [9] | IC50 ([10]; 48 h) | MIC ([10]; 48 h) | Compound | also measured |
| --- | --- | --- | --- | --- | --- | --- | --- | --- | --- | --- | --- | --- | --- | --- | --- | --- | --- | --- | --- | --- | --- |
| >35.2 µg/mL | >64.0 µg/mL | >35.2 µg/mL | >64.0 µg/mL | >35.2 µg/mL | >64.0 µg/mL | >35.2 µg/mL | >64.0 µg/mL | >35.2 µg/mL | >64.0 µg/mL | >35.2 µg/mL | >64.0 µg/mL | >35.2 µg/mL | >64.0 µg/mL | >35.2 µg/mL | >64.0 µg/mL | 4.87 µg/mL (≈ 7.62 µM) | 8.86 µg/mL (≈ 13.9 µM) | >35.2 µg/mL | >64.0 µg/mL | COC(=O)[C@H](Cc1ncn(Cc2cccc(C(F)(F)F)c2)c1I)NC(=O)[C@@H](N)Cc1c[nH]c2ccccc12 [10e] | – |
| >35.2 µg/mL | >64.0 µg/mL | >35.2 µg/mL | >64.0 µg/mL | >35.2 µg/mL | >64.0 µg/mL | >35.2 µg/mL | >64.0 µg/mL | >35.2 µg/mL | >64.0 µg/mL | >35.2 µg/mL | >64.0 µg/mL | >35.2 µg/mL | >64.0 µg/mL | >35.2 µg/mL | >64.0 µg/mL | 2.78 µg/mL (≈ 4.72 µM) | 4.64 µg/mL (≈ 7.87 µM) | >35.2 µg/mL | >64.0 µg/mL | COC(=O)[C@H](Cc1ncn(Cc2cccc(F)c2)c1I)NC(=O)[C@@H](N)Cc1c[nH]c2ccccc12 [10k] | – |
| >35.2 µg/mL | >64.0 µg/mL | >35.2 µg/mL | >64.0 µg/mL | >35.2 µg/mL | >64.0 µg/mL | >35.2 µg/mL | >64.0 µg/mL | >35.2 µg/mL | >64.0 µg/mL | >35.2 µg/mL | >64.0 µg/mL | >35.2 µg/mL | >64.0 µg/mL | >35.2 µg/mL | >64.0 µg/mL | – | 32.11 µg/mL (≈ 53 µM) | >35.2 µg/mL | >64.0 µg/mL | COC(=O)[C@H](Cc1ncn(Cc2cccc(Cl)c2)c1I)NC(=O)[C@@H](N)Cc1c[nH]c2ccccc12 [10l] | – |
| >35.2 µg/mL | >64.0 µg/mL | >35.2 µg/mL | >64.0 µg/mL | >35.2 µg/mL | >64.0 µg/mL | >35.2 µg/mL | >64.0 µg/mL | >35.2 µg/mL | >64.0 µg/mL | >35.2 µg/mL | >64.0 µg/mL | >35.2 µg/mL | >64.0 µg/mL | >35.2 µg/mL | >64.0 µg/mL | 8.81 µg/mL (≈ 14.4 µM) | 16.02 µg/mL (≈ 26.1 µM) | >35.2 µg/mL | >64.0 µg/mL | COC(=O)[C@H](Cc1ncn(Cc2ccc(C(C)C)cc2)c1I)NC(=O)[C@@H](N)Cc1c[nH]c2ccccc12 [10c] | – |
| >35.2 µg/mL | >64.0 µg/mL | >35.2 µg/mL | >64.0 µg/mL | 35.2 µg/mL (≈ 56.1 µM) | 64.0 µg/mL (≈ 102 µM) | >35.2 µg/mL | >64.0 µg/mL | >35.2 µg/mL | >64.0 µg/mL | 35.2 µg/mL (≈ 56.1 µM) | 64.0 µg/mL (≈ 102 µM) | >35.2 µg/mL | >64.0 µg/mL | >35.2 µg/mL | >64.0 µg/mL | 5.15 µg/mL (≈ 8.21 µM) | – | >35.2 µg/mL | >64.0 µg/mL | COC(=O)[C@H](Cc1ncn(Cc2ccc(C(C)(C)C)cc2)c1I)NC(=O)[C@@H](N)Cc1c[nH]c2ccccc12 [10b] | – |
| >35.2 µg/mL | >64.0 µg/mL | >35.2 µg/mL | >64.0 µg/mL | >35.2 µg/mL | >64.0 µg/mL | >35.2 µg/mL | >64.0 µg/mL | >35.2 µg/mL | >64.0 µg/mL | >35.2 µg/mL | >64.0 µg/mL | >35.2 µg/mL | >64.0 µg/mL | >35.2 µg/mL | >64.0 µg/mL | – | 32.05 µg/mL (≈ 46 µM) | >35.2 µg/mL | >64.0 µg/mL | COC(=O)[C@H](Cc1ncn(Cc2cccc(I)c2)c1I)NC(=O)[C@@H](N)Cc1c[nH]c2ccccc12 [10n, Trp-His[1-(3-iodobenzyl)-5-iodo]-OMe] | – |
| >35.2 µg/mL | >64.0 µg/mL | >35.2 µg/mL | >64.0 µg/mL | – | – | – | – | >35.2 µg/mL | >64.0 µg/mL | – | – | >35.2 µg/mL | >64.0 µg/mL | – | – | 9.23 µg/mL (≈ 14.2 µM) | 16.79 µg/mL (≈ 25.8 µM) | – | – | COC(=O)[C@H](Cc1ncn(Cc2cccc(Br)c2)c1I)NC(=O)[C@@H](N)Cc1c[nH]c2ccccc12 [10m] | – |

Source: article PMC9821961, “Ring-Modified Histidine-Containing Cationic Short Peptides Exhibit Anticryptococcal Activity by Cellular Disruption” (Molecules, 2022)
